Reference: patent publication US20250154686A1, “COMPOUND LIBRARY” (CHUGAI SEIYAKU KABUSHIKI KAISHA, priority 2021, published 2025)

Target: T1, Bcl-2 protein (Recombinant Human Bcl-2 Protein) (Homo sapiens, UniProt P10415)
T1 construct: purchased Novus Biologicals NBP2-34889
Test: AS-MS evaluation of binding of the Example 4 mixture library (1200 compounds/well) to Bcl-2, ASMS ratio (%)
Conditions: for ASMS ratio (%) n = 1: replicate n = 1; for ASMS ratio (%) n = 2: replicate n = 2
Method: DMSO solutions (prepared into approximately 0.58 mM based on calculation from the average molecular weight of each mixture) of 12 types of mixtures that could each contain 100 compounds, i.e., mixAI-B4J-01, mixAI-B1M-01, mixAI-B1K-01, mixAI-BIO-01, mixAI-B1A-01, mixAI-B3A-01, mixAI-B21-01, mixAI-B2L-01, mixAI-B2N-01, mixAI-B2A-01, mixAI-B2Q-01, and mixAI-B2R-01, shown in Table AI-03-B4J-01, Table AI-03-B1M-01, Table AI-03-B1K-01, Table AI-03-B10-01, Table AI-03-B1A-01, Table AI-03-B3A-01, Table AI-03-B21-01, Table AI-03-B2L-01, Table AI-03-B2N-01, Table AI-03-B2A-01, Table AI-03-B2Q-01, and Table AI-03-B2R-01 described in Example 4, were respectively dispensed to a total of 12 wells of MICROPLATE, 96-well, PP, V-BOTTOM (Greiner Bio-One International GmbH, 651201). 70 nL each from the 12 wells was collected into any one well using LABCYTE ECHO® 555 acoustic dispensing system (Beckman Coulter, Inc.) to prepare a sample solution in a mixed state of 1200 compounds (the presence of 1152 compounds was already identified when the mixtures were prepared in Example 4). Further, Bcl-2 protein (Novus Biologicals, NBP2-34889, Recombinant Human Bcl-2 Protein, Lot E60145051) (19.2 μL) prepared at 20.9 μM in advance using a Tris-HCl buffer (25 mM Tris-HCl, pH 7.4, 150 mM NaCl, 0.025% Tween-20, and 1 mM DTT) was added to the well containing the dispensed 1200 compounds (the presence of 1152 compounds was already identified when the mixtures were prepared in Example 4) (final compound concentration: 20 nM, final Bcl-2 concentration: 20 μM), and the plate was incubated at 23° C. for 1 hour in the dark. Subsequently, 200 μL of an assay buffer (25 mM Tris-HCl, pH 7.4, 150 mM NaCl, 0.025% Tween-20, and 1 mM DTT) was centrifuged three times at 2000×G at 4° C. for 2 minutes using 96-well MacroSpin column, P-2 Material (Harvard Bioscience, Inc., 74-5655) that had been allowed to swell to condition the 96-well MacroSpin column. Subsequently, 20 μL of the sample thus incubated was added to the 96-well MacroSpin column, P-2 Material after the completion of conditioning, and SEC treatment was performed by centrifugation at 2000×G for 2 minutes. 32 μL of a 1:1 mixed solution of acetonitrile and methanol (LC/MS grade, FUJIFILM Wako Pure Chemical Corp.) was added to a flow-through liquid from SEC, and the mixture was centrifuged at 1800×G at 4° C. for 5 minutes. The supernatant was used as analysis sample ASMS (A). By a similar operation, a sample prepared at 1200 compounds/well and supplemented with only a Tris-HCl buffer containing no Bcl-2 protein was incubated under the same conditions as above, and the same organic solvent as above was added thereto without 96-well MacroSpin column treatment. A supernatant obtained by a centrifugation operation was used as STD (B). Next, by a similar operation, a sample prepared at 1200 compounds/well and supplemented with only a Tris-HCl buffer containing no Bcl-2 protein was incubated under the same conditions as above and treated with 96-well MacroSpin column in the same manner as above, and the same organic solvent as above was added thereto. A supernatant obtained by a centrifugation operation was used as BK (C). These samples were measured by reverse-phase LC/MS.
Then, the samples A, B and C were analyzed for the 1200 compounds using TraceFinder 5.1 (Thermo Fisher Scientific Inc.) and CHANCE Software (in-house), and an ASMS ratio (%) was calculated according to the following expression.
Although m/z of the MS peaks was confirmed down to four decimal places, 0 at the decimal level may be omitted in the description in Table AJ-01. For example, “587.0000” is also referred to as “587”, “587.1000” is also referred to as “587.1”, “587.1200” is also referred to as “587.12”, and “587.1230” is also referred to as “587.123”.

[1] = AS-MS, mixture of 1200 compounds/well, Bcl-2 protein
[2] = mixture library, value belongs to the MS peak assigned to the compound

T1 sequence (P10415 whole entry): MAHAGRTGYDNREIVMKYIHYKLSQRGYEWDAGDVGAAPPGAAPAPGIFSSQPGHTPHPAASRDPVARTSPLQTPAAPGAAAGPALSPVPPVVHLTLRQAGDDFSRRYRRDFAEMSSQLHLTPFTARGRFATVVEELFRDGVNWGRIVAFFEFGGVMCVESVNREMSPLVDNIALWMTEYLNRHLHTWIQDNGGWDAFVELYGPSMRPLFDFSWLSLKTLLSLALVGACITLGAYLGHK

SMILES	ASMS ratio (%) n = 1 [1]	ASMS ratio (%) n = 2 [1]	ASMS ratio (%) n = 1 [2]	ASMS ratio (%) n = 2 [2]
CCCNC(=O)c1ccc(N2CCN(C(=O)c3ccc(-c4cncc(OCC)c4)c(F)c3)CC2)cc1 [Compound B1M028-01]	0.0%	0.0%	–	–
CCCNC(=O)c1ccc(N2CCN(Cc3ccc(-c4cccc(OCC)c4)c4ccccc34)CC2)cc1 [Compound B1M065-01]	0.2%	−6.4%	–	–
CCCNC(=O)c1ccc(N2CCN(Cc3cc(-c4cccc(OCC)c4)cs3)CC2)cc1 [Compound B1M067-01]	−1.6%	−87.4%	–	–
CCCNC(=O)c1ccc(N2CCN(Cc3cc(-c4cncc(OCC)c4)cs3)CC2)cc1 [Compound B1M068-01]	1.1%	0.0%	–	–
CCCNC(=O)c1ccc(N2CCN(Cc3ccc(-c4cccc(OCC)c4)c(C)c3)CC2)nn1 [Compound B1M073-01]	0.4%	−0.5%	–	–
CCCNC(=O)c1ccc(N2CCN(Cc3ccc(-c4cncc(OCC)c4)c(C)c3)CC2)nn1 [Compound B1M074-01]	−1.6%	0.9%	–	–
CCCNC(=O)c1ccc(N2CCN(Cc3ccc(-c4cccc(OCC)c4)c(F)c3)CC2)nn1 [Compound B1M077-01]	−0.7%	3.1%	–	–
CCCNC(=O)c1ccc(N2CCN(Cc3ccc(-c4cncc(OCC)c4)c(F)c3)CC2)nn1 [Compound B1M078-01]	0.0%	0.0%	–	–
CCCNC(=O)c1ccc(N2CCN(Cc3cc(-c4cccc(OCC)c4)cc(C(F)(F)F)c3)CC2)nn1 [Compound B1M087-01]	3.8%	3.2%	–	–
CCCNC(=O)c1ccc(N2CCN(Cc3cc(-c4cncc(OCC)c4)cc(C(F)(F)F)c3)CC2)nn1 [Compound B1M088-01]	0.0%	0.0%	–	–
CCCNC(=O)c1ccc(N2CCN(Cc3cc(-c4cccc(OCC)c4)cs3)CC2)nn1 [Compound B1M093-01]	0.0%	0.0%	–	–
CCCNC(=O)c1ccc(N2CCN(Cc3cc(-c4cncc(OCC)c4)cs3)CC2)nn1 [Compound B1M094-01]	−1.5%	−2.1%	–	–
CCCNC(=O)c1ccc(N2CCN(C(C)c3ccc(-c4cccc(OCC)c4)cc3)CC2)cc1 (stereo not drawn) [Compound B1M097-01]	1.1%	0.3%	–	–
CCCNC(=O)c1ccc(N2CCN(C(C)c3ccc(-c4cncc(OCC)c4)cc3)CC2)cc1 (stereo not drawn) [Compound B1M098-01]	0.9%	0.3%	–	–
CCOc1cccc(-c2ccc(CN3CCN(c4ccc(C(=O)Nc5ccc(OC)cc5)nn4)CC3)c3ccccc23)c1 [Compound B1O091-01, 6-[4-[[4-(3-Ethoxyphenyl)naphthalen-1-yl]methyl]piperazin-1-yl]-N-(4-methoxyphenyl)pyridazine-3-carboxamide]	–	−2.2%	–	–
CCOc1cccc(-c2cc(CN3CCN(c4ccc(C(=O)NS(=O)(=O)CC56CC7CC(CC(C7)C5)C6)nn4)CC3)cc(OC(F)(F)F)c2)c1 [Compound B2A089-01]	–	–	10.5%	0.5%
CCOc1cccc(-c2cc(C(=O)N3CCN(c4ccc(C(=O)NS(C)(=O)=O)cc4)CC3)cc(C(F)(F)F)c2)c1 [Compound B2I039-01, 4-[4-[3-(3-Ethoxyphenyl)-5-(trifluoromethyl)benzoyl]piperazin-1-yl]-N-methylsulfonylbenzamide]	–	–	0.0%	0.0%
CCOc1cncc(-c2cc(C(=O)N3CCN(c4ccc(C(=O)NS(C)(=O)=O)cc4)CC3)cc(C(F)(F)F)c2)c1 [Compound B2I040-01, 4-[4-[3-(5-Ethoxypyridin-3-yl)-5-(trifluoromethyl)benzoyl]piperazin-1-yl]-N-methylsulfonylbenzamide]	–	–	0.0%	−2.7%
CCOc1cccc(C#Cc2cc(C(=O)N3CCN(c4ccc(C(=O)NS(C)(=O)=O)cc4)CC3)cc(C(F)(F)F)c2)c1 [Compound B2I041-01, 4-[4-[3-[2-(3-Ethoxyphenyl)ethynyl]-5-(trifluoromethyl)benzoyl]piperazin-1-yl]-N-methylsulfonylbenzamide]	–	–	0.0%	0.0%
CCOc1cncc(C#Cc2cc(C(=O)N3CCN(c4ccc(C(=O)NS(C)(=O)=O)cc4)CC3)cc(C(F)(F)F)c2)c1 [Compound B2I042-01, 4-[4-[3-[2-(5-Ethoxypyridin-3-yl)ethynyl]-5-(trifluoromethyl)benzoyl]piperazin-1-yl]-N-methylsulfonylbenzamide]	–	–	0.0%	0.0%
CCOc1cccc(-c2cnn(-c3cc(C(=O)N4CCN(c5ccc(C(=O)NS(C)(=O)=O)cc5)CC4)cc(C(F)(F)F)c3)c2)c1 [Compound B2I043-01, 4-[4-[3-[4-(3-Ethoxyphenyl)pyrazol-1-yl]-5-(trifluoromethyl)benzoyl]piperazin-1-yl]-N-methylsulfonylbenzamide]	–	–	0.0%	0.0%
CCOc1cncc(-c2cnn(-c3cc(C(=O)N4CCN(c5ccc(C(=O)NS(C)(=O)=O)cc5)CC4)cc(C(F)(F)F)c3)c2)c1 [Compound B2I044-01, 4-[4-[3-[4-(5-Ethoxypyridin-3-yl)pyrazol-1-yl]-5-(trifluoromethyl)benzoyl]piperazin-1-yl]-N-methylsulfonylbenzamide]	–	–	0.0%	0.0%
CCOc1cccc(-c2ccccc2CN2CCN(c3ccc(C(=O)NS(C)(=O)=O)cc3)CC2)c1 [Compound B2I045-01, 4-[4-[[2-(3-Ethoxyphenyl)phenyl]methyl]piperazin-1-yl]-N-methylsulfonylbenzamide]	–	–	−0.3%	0.2%
CCOc1cncc(-c2ccccc2CN2CCN(c3ccc(C(=O)NS(C)(=O)=O)cc3)CC2)c1 [Compound B2I046-01, 4-[4-[[2-(5-Ethoxypyridin-3-yl)phenyl]methyl]piperazin-1-yl]-N-methylsulfonylbenzamide]	–	–	−0.6%	1.5%
CCOc1cccc(-c2ccc(CN3CCN(c4ccc(C(=O)NS(C)(=O)=O)cc4)CC3)cc2C)c1 [Compound B2I047-01, 4-[4-[[4-(3-Ethoxyphenyl)-3-methylphenyl]methyl]piperazin-1-yl]-N-methylsulfonylbenzamide]	–	–	0.8%	1.4%
CCOc1cncc(-c2ccc(CN3CCN(c4ccc(C(=O)NS(C)(=O)=O)cc4)CC3)cc2C)c1 [Compound B2I048-01, 4-[4-[[4-(5-Ethoxypyridin-3-yl)-3-methylphenyl]methyl]piperazin-1-yl]-N-methylsulfonylbenzamide]	–	–	0.0%	0.0%
